The numbers were not newly measured in patent US9307763B2, “Ligands for odor receptors and olfactory neurons” (The Regents of the University of California, priority 2010, dated 2016), which cites them from elsewhere.

The test system of the first data set is CO2 responsive neurons. The note with it: […]; averaged across the top 2 responders of the 4 species; cited from earlier work.
Turning to `OCCCCCO` [1,5-pentanediol], the “Final Activity” value is given as 0.
Turning to `CCCCCCBr` [1-bromohexane], the “Final Activity” value is 3.
As for `CCCCCCCl` [1-chlorohexane], the “Final Activity” value is 8.
Regarding `C=CC(O)CCCC` (stereo not shown) [1-hepten-3-ol], the “Final Activity” value is reported as 0.
On to `CCCCCCS` [1-hexanethiol], for which the “Final Activity” value is recorded as 3.
With `CCCCCCI` [1-iodohexane], the “Final Activity” value was 3.
In the case of `C=CC(O)CCCCC` (stereo not shown) [1-octen-3-ol], the “Final Activity” value is on record as −27.
On to `CC(=O)C(C)=O` [2,3-butanedione], for which the “Final Activity” value is −99.
For `CCC(=O)C(C)=O` [2,3-pentanedione], the “Final Activity” value is given as −55.
For the molecule `Cc1nc(C)c(C)s1` [2,4,5-trimethylthiazole], the “Final Activity” value is reported as 5.
As for `Cc1cnc(C)cn1` [2,5-dimethylpyrazine], the “Final Activity” value is reported as 26.
As for `Cc1ccc(C)s1` [2,5-dimethylthiophene], the “Final Activity” value is −9.
Take `CCCNCCO` [2-(propylamino)-ethanol]: the “Final Activity” value is recorded as −39.
On to `CC(=O)c1cccs1` [2-acetylthiophene], for which the “Final Activity” value is 31.
As to `CCc1ncc(C)nc1C` [2-ethyl-3,5-dimethylpyrazine], the “Final Activity” value is reported as 8.
On to `CCCCCC(C)O` (stereo not shown) [2-heptanol], for which the “Final Activity” value is listed as −39.
In the case of `CCCCC(C)O` (stereo not shown) [2-hexanol], the “Final Activity” value is given as 2.
`CCCCC(=O)C(C)C` [2-methyl-3-heptanone]: the “Final Activity” value was −26.
`Cc1ccccc1O` [2-methylphenol]: the “Final Activity” value is given as 24.
With `CCCCCCCC(=O)CC` [3-decanone], the “Final Activity” value is 1.
Regarding `CCCCC(O)CC` (stereo not shown) [3-heptanol], the “Final Activity” value is −16.
For `CC=C(C)CC` [3-methyl-2-pentene], the “Final Activity” value was 5.
Take `CCCCCCC(=O)CC` [3-nonanone]: the “Final Activity” value is recorded as 2.
For `CCCCCC(O)CC` (stereo not shown) [3-octanol], the “Final Activity” value is reported as −14.
Turning to `CSCCCC=O` [4-(methylthio)-1-butanal], the “Final Activity” value was −15.
For `CCCC(=O)CCC` [4-heptanone], the “Final Activity” value is listed as 2.
For the molecule `CC(=O)CCO` [4-hydroxy-2-butanone], the “Final Activity” value was −11.
In the case of `Cc1ccc(O)cc1` [4-methylphenol], the “Final Activity” value was 3.
Turning to `CC(C)=CCCC(C)O` (stereo not shown) [6-methyl-5-hepten-2-ol], the “Final Activity” value was 0.
Regarding `CCC/C=C/C=O` [(E)2-hexenal], the “Final Activity” value is 0.
For the molecule `COc1ccccc1` [Anisole], the “Final Activity” value was 6.
Regarding `O=Cc1ccccc1` [Benzaldehyde], the “Final Activity” value is given as 6.
Take `O=C(c1ccccc1)c1ccccc1` [Benzophenone]: the “Final Activity” value is listed as 8.
On to `C=C(C)C1CC=C(C)C(=O)C1` (stereo not shown) [Carvone], for which the “Final Activity” value was 4.
With `CC(C)=CCCC(C)CC=O` (stereo not shown) [Citronellal], the “Final Activity” value is 8.
With `O=C1CCCCC1` [Cyclohexanone], the “Final Activity” value is recorded as 48.
For `CCOC(C)=O` [Ethyl Acetate], the “Final Activity” value is 8.
As to `C=CCc1ccc(OC)c(OC)c1` [Eugenol Methyl Ether], the “Final Activity” value is −9.
On to `C=CCc1ccc(O)c(OC)c1` [Eugenol], for which the “Final Activity” value was 1.
Consider `CC12CCC(C1)C(C)(C)C2=O` (stereo not shown) [Fenchone], for which the “Final Activity” value is on record as −2.
On to `CC(C)=CCC/C(C)=C/CO` [Geraniol], for which the “Final Activity” value is 8.
As for `c1ccc2[nH]ccc2c1` [Indole], the “Final Activity” value is listed as 21.
Turning to `CC(=O)OCCC(C)C` [Isoamyl Acetate], the “Final Activity” value is −2.
`CC(C)O` [Isopropyl Alcohol]: the “Final Activity” value is recorded as 3.
Regarding `C=C(C)[C@H]1CC=C(C)CC1` [Limonene], the “Final Activity” value is recorded as −2.
As for `CC1CCC(C(C)C)C(O)C1` (stereo not shown) [Menthol], the “Final Activity” value is listed as −2.
On to `CO` [Methanol], for which the “Final Activity” value is given as −14.
For `CSCCC=O` [Methional], the “Final Activity” value is recorded as 0.
For `CCCCCCCCCO` [Nonanol], the “Final Activity” value is reported as −12.
Consider `CC(=O)c1ccccc1` [Phenylethanone], for which the “Final Activity” value is recorded as 5.
As for `Cc1ccc(C(C)C)c(O)c1` [Thymol], the “Final Activity” value was 15.
For `CC(=O)c1ccccc1` [acetophenone], the “Final Activity” value is given as 15.
In the case of `CCCC=O` [butanal], the “Final Activity” value is −85.
With `CCC(C)=O` [butanone], the “Final Activity” value is −25.
For `CCCC(=O)O` [butyric acid], the “Final Activity” value is reported as −94.
With `CCCC(=O)Cl` [butyryl chloride], the “Final Activity” value is −39.
Turning to `C/C=C\CCC` [cis-2-hexene], the “Final Activity” value is recorded as 5.
Take `CC/C=C\CCO` [cis-3-hexen-1-ol]: the “Final Activity” value is on record as 10.
Consider `CCCCC(=O)OCC` [ethyl valerate], for which the “Final Activity” value is reported as 5.
For the molecule `CC(=O)CF` [fluoroacetone], the “Final Activity” value is reported as 10.
As to `CC1CCC(=O)O1` (stereo not shown) [gamma-valerolactone], the “Final Activity” value is on record as −5.
Turning to `CCCCCCC=O` [heptanal], the “Final Activity” value was −21.
Regarding `CCCCCCC` [heptane], the “Final Activity” value is recorded as −29.
For the molecule `CCCCCCC(=O)O` [heptanoic acid], the “Final Activity” value was −14.
With `CCCCCCCO` [heptanol], the “Final Activity” value is on record as −38.
For `CCCCCCCOC(C)=O` [heptyl acetate], the “Final Activity” value is given as −8.
Turning to `CCCCCC=O` [hexanal], the “Final Activity” value was −32.
Turning to `CCCCCC(=O)O` [hexanoic acid], the “Final Activity” value was −16.
For the molecule `CCCCCCO` [hexanol], the “Final Activity” value is recorded as −70.
In the case of `CCCCCCOC(C)=O` [hexyl acetate], the “Final Activity” value is on record as −12.
Take `CCCCCC[SiH3]` [hexylsilane]: the “Final Activity” value is 3.
As to `COCC(C)=O` [methoxyacetone], the “Final Activity” value is 6.
In the case of `COC(=O)C(C)=O` [methyl pyruvate], the “Final Activity” value was −100.
Turning to `c1ccc2ccccc2c1` [naphthalene], the “Final Activity” value was −14.
Take `CCCCCCCC=O` [octanal]: the “Final Activity” value is −20.
On to `CCCCCCCC` [octane], for which the “Final Activity” value is −34.
`CCCCCCCC(=O)O` [octanoic acid]: the “Final Activity” value was −21.
Take `CCCCCCCCO` [octanol]: the “Final Activity” value is listed as −35.
On to `CCCCCCCCOC(C)=O` [octyl acetate], for which the “Final Activity” value is given as −15.
For `CCCCC=O` [pentanal], the “Final Activity” value is given as −51.
For `CCCCC` [pentane], the “Final Activity” value was −31.
As to `CCCCC(=O)O` [pentanoic acid], the “Final Activity” value was −26.
Turning to `CCCCCO` [pentanol], the “Final Activity” value was −41.
On to `CCCCCOC(C)=O` [pentyl acetate], for which the “Final Activity” value is given as −15.
In the case of `O=CCc1ccccc1` [phenylacetaldehyde], the “Final Activity” value is 3.
Regarding `CCC=O` [propionaldehyde], the “Final Activity” value is listed as −68.
Turning to `CCC(=O)O` [propionic acid], the “Final Activity” value is on record as −32.
Turning to `CCC(=O)Cl` [propionyl chloride], the “Final Activity” value is recorded as −73.
Take `c1cnccn1` [pyrazine]: the “Final Activity” value was −8.
With `CC(=O)C(=O)O` [pyruvic acid], the “Final Activity” value is 2.
As for `c1cscn1` [thiazole], the “Final Activity” value is recorded as 100.

Staying with this data set, now noted: in vivo; cited from earlier work.
For `CC(=O)O` [Acetic Acid], the “Final Activity” value is −7.
`CCO` [Ethanol]: the “Final Activity” value is −16.
`CCCCOC(C)=O` [butyl acetate]: the “Final Activity” value is on record as −28.
For `CCCCCC` [hexane], the “Final Activity” value was −25.
As to `c1ccncc1` [pyridine], the “Final Activity” value is reported as 99.
With butanol, the “Final Activity” value is −25.
